Values quoted from earlier work, collected in publication PMC4007625, “A phase I study of AST1306, a novel irreversible EGFR and HER2 kinase inhibitor, in patients with advanced solid tumors” (Journal of Hematology & Oncology, 2014).

Tested on: advanced/metastatic gastric cancer
Set-up: method as in PMID 21415234
Settings: single agent, advanced/metastatic gastric cancer patients; cited from earlier work

CS(=O)(=O)CCNCc1ccc(-c2ccc3ncnc(Nc4ccc(OCc5cccc(F)c5)c(Cl)c4)c3c2)o1 [lapatinib]
response rate: 9%
